# Assay results reported in patent US8497298B2, “Use of benzo-fused heterocycle sulfamide derivatives for lowering lipids and lowering blood glucose levels” (Janssen Pharmaceutica NV, priority 2005, dated 2013).
# Test system: db/db mice
# Assay: Diabetic db/db Mouse In Vivo Assay (Example 13)
# Details: female db/db mice, A300 mg/kg oral gavage once daily
# Source text: Db/db mice are known in the art to be susceptible to Type II diabetes (Sharma K, McCue P, Dunn S R. Am J Physiol Renal Physiol. 2003 June;284(6):F1138-44). The Db/db mice are also known in the art to be a useful model for dylipidemia.
# Female db/db mice (C57BL/6J-Lep^db/db, Jackson Laboratories, Bar Harbor, Me., USA) were received at 8 weeks of age and single-housed and fed with regular chow diet. Blood was collected by tail puncture and glucose was monitored with a glucometer (OneTouch Basic, Lifescan, Newtown, Pa.).
# Mice at 10 weeks of age were randomized into treatment groups based on glucose values (first criterion, average of 250 mg/dl) and body weight (second criterion, average of 37 gram). The mice were orally gavaged once daily (0.2 ml at 1500-1700 hour) with vehicle control (0.5% methylcellulose, pH7.4) and vehicle containing test compound (A300 mg/kg). On day 11, the mice were fasted for 4 hr during light cycle (food was removed 0600-1000 hour) and blood glucose levels were measured through tail puncture with a glucometer at 1000 hour. The mice were then anaesthetized with sodium pentobarbital (1 ml/kg, i.p, Sleepaway, Fort Dodge, Iowa) and blood was drawn via cardiac puncture and collected into heparinized tubes.
# White adipose tissue (WAT) (retroperitoneal fat) and skeletal muscle (gastrocnemius and soleus muscle) were dissected and weighed. Plasma samples were obtained by centrifuge at 2,000 g for 15 minutes at 4° C. and subjected to measurement of insulin, HDL cholesterol and triglyceride.
# Data shown below are expressed as the mean and standard error calculated using 9-10 mice per treatment group. The 2 tailed Student's t-Tests were used for statistic analysis. All animal studies complied with the guideline of the Institutional Animal Care and Use Committee.
smiles,measurement,setting,value
"NS(=O)(=O)NC[C@H]1COc2cc(Cl)ccc2O1 [Compound #8, (2S)-(−)-N-(6-Chloro-2,3-dihydro-benzo[1,4]dioxin-2-ylmethyl)-sulfamide]",Retroperitoneal Fat Weight,day 11,1.31 ± 0.07 g
same,Skeletal Muscle Weight,day 11,0.154 ± 0.00 g
same,Blood Glucose,"day 11, fasted 4 hr",210 ± 27 mg/dL
same,HDL Cholesterol,"day 11, plasma",55.9 ± 3.7 mg/dL
same,Triglycerides,"day 11, plasma",98 ± 41 mg/dL
same,fat to lean mass ratio,p<0.01 vs vehicle 27.9±1.4,23.4±0.9
same,Insulin levels versus vehicle treated animals,plasma,not statistically different
